Test results from patent US20230263900A1, “DENDRIMER-DRUG CONJUGATE” (priority 2020, published 2023).
Read-outs that look alike come from different tables or passages of the source.

Assays:
[1] = Viscosity measurements (Viscosity Method 1); assay type: physicochemical; settings: 50 mg/mL Remdesivir equivalents in EtOH: Water (1:9 v/v)
Experimental: Viscosities were measured on Anton Paar ViscoQC300 Viscometer using CC-12 cup.
Viscosity Method 1: A reference standard solution (Standard Type: RT500, CAS No. 63148-62-9, Paragon Scientific Ltd) was first recorded and found to be within the range of reported value (at 20° C.: found 556.6 cP, theoretical 551.0 cP; at 25° C.: found 503.3 cP, theoretical 498.6 cP). Accurately weighed quantities of respective conjugates were dissolved in EtOH:Water […] to make a 50 mg/mL Remdesivir equivalent solution (total volume 2.30-2.40 mL) and the viscosity of the solution was recorded at 20° C. and 25° C.
Viscosities of 2 formulations containing either RHa-5 or RHa-17 in EtOH: Water (1:9 v/v) were measured using Viscosity Method 1

[2] = Release of Remdesivir in PBS buffer (Release Method 1); assay type: physicochemical; settings: PBS buffer with 10% v/v DMSO, pH 7.4, 37° C.
Experimental: Release Method 1: An accurately weighed amount of the Remdesivir-dendrimer (10 mg) construct was dissolved in pH 7.4 PBS buffer:DMSO (9:1 v/v) and the volume made up to 20.0 mL in a volumetric flask to give a 0.5 mg/mL stock solution. The stock solution was aliquoted into several 2 mL screw-cap vials, the caps fitted and the vials heated at 37° C. The aliquoted solutions were analyzed at different time points by HPLC (HPLC Method 3). The concentration of Remdesivir RHa-1 was calculated by comparing the area under the peak associated with Remdesivir RHa-1 to a standard curve in MeCN:DMSO (9:1, v/v). The percentage of Remdesivir RHa-1 released is the percentage of available Remdesivir RHa-1 based on the loading of the construct as determined by ^1H NMR analysis (API Loading Method 1).
The extent to which the Remdesivir RHa-1 was released over time in PBS buffer (with 10% v/v DMSO) (pH 7.4) at 37° C. was determined for 5 constructs, RHa-17, RHa-15, RHa-11, RHa-5 and RHa-3 (Release Method 1) over 120 hours.
Trace amounts of other components were also observed (presumed to be degradation products of Remdesivir RHa-1). The area under the resolvable (separated) peaks associated with these degradants was also added to the peak area associated with released Remdesivir RHa-1.
BHALys [Lys]2[Lys]4[Lys]8[Lys]16[Lys]32[(α-NH-6N-TDA-Remdesivir)32(ε-NH-COPEG2000)32] RHa-5 contained 1.77% free Remdesivir RHa-1 at t=0 min. The value of released Remdesivir RHa-1 shown in FIG. 3 has been adjusted to take this into account.

Solubility studies = assay type: physicochemical
Experimental: The solubility of BHALys[Lys]2[Lys]4[Lys]8[Lys]16[Lys]32[(α-NH-3′ O-Glu-Remdesivir)32(ε-NH-COPEG2000)32] RHa-3 in water was determined to be ≥200 mg/mL (or ≥43.6 mg/mL Remdesivir RHa-1) by adding water (250 μL) to 50.0 mg of BHALys [Lys]2[Lys]4[Lys]8[Lys]16[Lys]32[(α-NH-3′ O-Glu-Remdesivir)32(ε-NH-COPEG2000)32] and swirling briefly. After 2 min, the resulting solution was visually inspected for particulates and found to be a clear solution (see FIG. 2). Solutions shown are 40 mg/ml Remdesivir equivalents (equivalent to 200 mg/ml of conjugate RHa-3).
The solubility of BHALys[Lys]2[Lys]4[Lys]8[Lys]16[Lys]32[(α-NH-6N-TDA-Remdesivir)32(ε-NH-COPEG2000)32] RHa-5, in EtOH:Water (1:9 v/v) was determined to be ≥543 mg/mL (or ≥107 mg/mL Remdesivir RHa-1) by adding water EtOH:Water (1:9 v/v, 400 μL) to 380 mg of RHa-5. The mixture was swirled briefly and left to stand at rt. After 1.5 h the resulting solution (volume recorded=700 μL) was visually inspected for particulates and found to be a clear solution.
The solubility of BHALys[Lys]2[Lys]4[Lys]8[Lys]16[Lys]32[(α-NH-6N-TDA-Remdesivir)32(ε-NH-COPEG1000)32] RHa-17 in EtOH:Water (1:9 v/v) was determined to be ≥354* mg/mL (or ≥85 mg/mL Remdesivir RHa-1) by adding EtOH:Water (1:9 v/v, 958 μL) portionwise to 525 mg of RHa-17, over a period of 1.5 h with intermittent swirling. The resulting solution was visually inspected for particulates and found to be a clear solution.
(*Total volume not recorded. Assumes 1 mg construct contributes to 1 μL of final solution (i.e., total volume of final solution=1483 μL)).

[3] = cited from earlier work
Coronavirus infection = settings: cited from earlier work

Molecule: BHALys[Lys]2[Lys]4[Lys]8[Lys]16[Lys]32[(α-NH-6N-TDA-Remdesivir)32(ε-NH-COPEG2000)32] [RHa-5]
- Viscosity at 20° C. [1]: 144.2 cP
- Viscosity at 25° C. [1]: 100.6 cP
- Approx. Time taken for 50% Remdesivir release [2]: ~58 h
- Solubility in EtOH:Water (1:9 v/v) (Solubility studies; EtOH:Water (1:9 v/v), conjugate mass, rt): ≥ 543 mg/mL
- Solubility in EtOH:Water (1:9 v/v), as Remdesivir RHa-1 (Solubility studies; EtOH:Water (1:9 v/v), expressed as Remdesivir RHa-1): ≥ 107 mg/mL

Molecule: CCC(CC)COC(=O)[C@H](C)N[P@](=O)(OC[C@H]1O[C@@](C#N)(c2ccc3c(N)ncnn23)[C@H](O)[C@@H]1O)Oc1ccccc1 [RDV, 2-Ethylbutyl (2S)-2-{[(S)-{[(2R,3S,4R,5R)-5-(4-aminopyrrolo[2,1-f][1,2,4]triazin-7-yl)-5-cyano-3,4-dihydroxytetrahydrofuran-2-yl]methoxy}(phenoxy)phosphoryl]amino}propanoate]
- Cmax ([3]; after 200 mg dose of Remdesivir): 5440 ng/mL
- Median terminal half-life ([3]; human, in vivo): approximately 1 hours
- Plasma half-life ([3]; in vivo, iv): approximately 1 hour
- Appearance in water at 40 mg/mL (Solubility studies; water, 40 mg/mL, FIG. 2): suspension
- Clinical recovery, figure in parentheses (share of patients) (Coronavirus infection; 5-Day RDV, n = 200, Day 14): (65)
- Clinical recovery, patients (Coronavirus infection; 5-Day RDV, n = 200, Day 14): 129
- Death, figure in parentheses (share of patients) (Coronavirus infection; 5-Day RDV, n = 200, Day 14): (8)
- Death, patients (Coronavirus infection; 5-Day RDV, n = 200, Day 14): 16
- Discharge, figure in parentheses (share of patients) (Coronavirus infection; 5-Day RDV, n = 200, Day 14): (60)
- Discharge, patients (Coronavirus infection; 5-Day RDV, n = 200, Day 14): 120
- ≥ 2-point improvement in ordinal scale, figure in parentheses (share of patients) (Coronavirus infection; 5-Day RDV, n = 200, Day 14): (65)
- ≥ 2-point improvement in ordinal scale, patients (Coronavirus infection; 5-Day RDV, n = 200, Day 14): 129
- AE leading to discontinuation, figure in parentheses (share of patients) (Coronavirus infection; 5-Day RDV, n = 200): (5)
- AE leading to discontinuation, patients (Coronavirus infection; 5-Day RDV, n = 200): 9
- Any adverse event (AE), figure in parentheses (share of patients) (Coronavirus infection; 5-Day RDV, n = 200): (71)
- Any adverse event (AE), patients (Coronavirus infection; 5-Day RDV, n = 200): 141
- Grade ≥ 3 study drug-related AE, figure in parentheses (share of patients) (Coronavirus infection; 5-Day RDV, n = 200): (4)
- Grade ≥ 3 study drug-related AE, patients (Coronavirus infection; 5-Day RDV, n = 200): 8
- Study drug-related serious adverse event (SAE), figure in parentheses (share of patients) (Coronavirus infection; 5-Day RDV, n = 200): (2)
- Study drug-related serious adverse event (SAE), patients (Coronavirus infection; 5-Day RDV, n = 200): 3
- Time to clinical improvement for 50% of patients (Coronavirus infection; 5-day treatment group): 10 days
- Clinical recovery, figure in parentheses (share of patients) (Coronavirus infection; 10-Day RDV, n = 197, Day 14): (54)
- Clinical recovery, patients (Coronavirus infection; 10-Day RDV, n = 197, Day 14): 106
- Death, figure in parentheses (share of patients) (Coronavirus infection; 10-Day RDV, n = 197, Day 14): (11)
- Death, patients (Coronavirus infection; 10-Day RDV, n = 197, Day 14): 21
- Discharge, figure in parentheses (share of patients) (Coronavirus infection; 10-Day RDV, n = 197, Day 14): (52)
- Discharge, patients (Coronavirus infection; 10-Day RDV, n = 197, Day 14): 103
- ≥ 2-point improvement in ordinal scale, figure in parentheses (share of patients) (Coronavirus infection; 10-Day RDV, n = 197, Day 14): (54)
- ≥ 2-point improvement in ordinal scale, patients (Coronavirus infection; 10-Day RDV, n = 197, Day 14): 107
- AE leading to discontinuation, figure in parentheses (share of patients) (Coronavirus infection; 10-Day RDV, n = 197): (10)
- AE leading to discontinuation, patients (Coronavirus infection; 10-Day RDV, n = 197): 20
- Any adverse event (AE), figure in parentheses (share of patients) (Coronavirus infection; 10-Day RDV, n = 197): (74)
- Any adverse event (AE), patients (Coronavirus infection; 10-Day RDV, n = 197): 145
- Grade ≥ 3 study drug-related AE, figure in parentheses (share of patients) (Coronavirus infection; 10-Day RDV, n = 197): (5)
- Grade ≥ 3 study drug-related AE, patients (Coronavirus infection; 10-Day RDV, n = 197): 10
- Study drug-related serious adverse event (SAE), figure in parentheses (share of patients) (Coronavirus infection; 10-Day RDV, n = 197): (2)
- Study drug-related serious adverse event (SAE), patients (Coronavirus infection; 10-Day RDV, n = 197): 4
- Time to clinical improvement for 50% of patients (Coronavirus infection; 10-day treatment group): 11 days

Molecule: BHALys[Lys]2[Lys]4[Lys]8[Lys]16[Lys]32[(α-NH-3′O-TDA-Remdesivir)32(ε-NH-COPEG2000)32] [RHa-15]
- Approx. Time taken for 50% Remdesivir release [2]: ~9 h
